Measured values from PubChem BioAssay (NCI).
Several values for one entry are separate records, joined by “and”; a condition that tells them apart may be missing. Identical values can stand only once.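 Grown in 96-well plates, cells were treated for 48 hours with each compound at five concentrations. Insufficient inhibition: endpoint recorded as highest concentration tested. Abbreviation: GI50, concentration required for 50% inhibition of growth. At the TGI there is no net growth.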

What was measured:
Assay in all cases: NCI-60 cell line screen, 48 h
[1] = system: SK-MEL-2 melanoma
[2] = system: MDA-N
[3] = system: PC-3 prostate
[4] = system: SR leukemia
[5] = system: ACHN renal
[6] = system: OVCAR-5 ovarian
[7] = system: OVCAR-4 ovarian
[8] = system: EKVX NSCLC
[9] = system: 786-0 renal
[10] = system: LOX IMVI melanoma
[11] = system: OVCAR-8 ovarian
[12] = system: SF-539 CNS
[13] = system: SF-268 CNS
[14] = system: SK-OV-3 ovarian
[15] = system: HOP-62 NSCLC
[16] = system: NCI-H226 lung
[17] = system: K-562 leukemia
[18] = system: SF-295 CNS
[19] = system: HL-60(TB) leukemia
[20] = system: BT-549 breast
[21] = system: CAKI-1 renal
[22] = system: NCI-H23 lung
[23] = system: MOLT-4 leukemia
[24] = system: OVCAR-3 ovarian
[25] = system: UACC-62 melanoma
[26] = system: NCI-H460 lung
[27] = system: UACC-257 melanoma
[28] = system: HCT-15 colon
[29] = system: MALME-3M melanoma
[30] = system: CCRF-CEM leukemia
[31] = system: NCI-H522 lung
[32] = system: MDA-MB-231 breast
[33] = system: SNB-19 CNS
[34] = system: SK-MEL-28 melanoma
[35] = system: HCC-2998 colon
[36] = system: T-47D breast
[37] = system: HT29 colon
[38] = system: HCT-116 colon
[39] = system: HS 578T breast
[40] = system: RPMI-8226 leukemia
[41] = system: UO-31 renal
[42] = system: A549 NSCLC
[43] = system: SK-MEL-5 melanoma
[44] = system: TK-10 renal
[45] = system: IGROV1 ovarian
[46] = system: HOP-92 NSCLC
[47] = system: RXF 393 renal
[48] = system: A498 renal
[49] = system: SW-620 colon
[50] = system: MCF7 breast
[51] = system: DU-145 prostate
[52] = system: KM12 colon
[53] = system: SNB-75 CNS
[54] = system: U251 CNS
[55] = system: M14 melanoma
[56] = system: SN12C renal
[57] = system: MDA-MB-435
[58] = system: NCI/ADR-RES ovarian
[59] = system: COLO 205 colon

For Cc1c(C#N)c(N)n(C2OC(CO)C(O)C(O)C2O)c(=S)c1C#N (configuration not stated), the GI50 [1] was 28.8 µM and > 100 µM, the TGI [1] was over 100 µM and the TGI [2] was over 100 µM. The TGI [3] was over 100 µM, the TGI [4] was over 100 µM and the TGI [5] was over 100 µM. It also gave a TGI [6] of over 100 µM, a TGI [7] of over 100 µM and a TGI [8] of over 100 µM. It also gave a TGI [9] of over 100 µM, a TGI [10] of over 100 µM and a TGI [11] of over 100 µM. It also gave a TGI [12] of over 100 µM, a TGI [13] of over 100 µM and a TGI [14] of over 100 µM. It also gave a TGI [15] of over 100 µM, a TGI [16] of over 100 µM and a TGI [17] of over 100 µM. For the same compound, the TGI [18] was over 100 µM, the TGI [19] was over 100 µM and the GI50 [20] was 18.5 µM and > 100 µM. The TGI [20] was 68.6 µM and > 100 µM, the GI50 [21] was 24.4 µM and > 100 µM and the TGI [21] was over 100 µM. The TGI [22] was over 100 µM, the TGI [23] was over 100 µM and the TGI [24] was over 100 µM. The TGI [25] was over 100 µM, the TGI [26] was over 100 µM and the TGI [27] was over 100 µM. The TGI [28] was over 100 µM, the TGI [29] was over 100 µM and the TGI [30] was over 100 µM. The TGI [31] was over 100 µM, the TGI [32] was over 100 µM and the TGI [33] was over 100 µM. It also gave a TGI [34] of over 100 µM, a TGI [35] of over 100 µM and a GI50 [36] of over 100 µM. The TGI [36] was over 100 µM, the TGI [37] was over 100 µM and the TGI [38] was over 100 µM. The TGI [39] was over 100 µM, the TGI [40] was over 100 µM and the TGI [41] was over 100 µM. For the same compound, the TGI [42] was over 100 µM, the TGI [43] was over 100 µM and the TGI [44] was over 100 µM. It also gave a TGI [45] of over 100 µM, a TGI [46] of over 100 µM and a TGI [47] of over 100 µM. The TGI [48] was over 100 µM, the TGI [49] was over 100 µM and the TGI [50] was over 100 µM. It also gave a TGI [51] of over 100 µM, a TGI [52] of over 100 µM and a TGI [53] of over 100 µM. The TGI [54] was over 100 µM, the TGI [55] was over 100 µM and the TGI [56] was over 100 µM.
O=P(O)(O)CC1OC(CO)C(O)C1O (configuration not stated) showed a TGI [1] of over 100 µM, a TGI [2] of over 100 µM and a TGI [3] of over 100 µM. The TGI [57] was over 100 µM, the TGI [5] was over 100 µM and the TGI [6] was over 100 µM. For the same compound, the TGI [7] was over 100 µM, the TGI [8] was over 100 µM and the TGI [9] was over 100 µM. For the same compound, the TGI [10] was over 100 µM, the TGI [11] was over 100 µM and the TGI [12] was over 100 µM. It also gave a TGI [13] of over 100 µM, a TGI [14] of over 100 µM and a TGI [58] of over 100 µM. It also gave a TGI [16] of over 100 µM, a TGI [17] of over 100 µM and a TGI [18] of over 100 µM. For the same compound, the TGI [19] was over 100 µM, the TGI [20] was over 100 µM and the TGI [21] was over 100 µM. For the same compound, the TGI [22] was over 100 µM, the TGI [23] was over 100 µM and the TGI [24] was over 100 µM. It also gave a TGI [25] of over 100 µM, a TGI [26] of over 100 µM and a TGI [27] of over 100 µM. It also gave a TGI [28] of over 100 µM, a TGI [29] of over 100 µM and a TGI [30] of over 100 µM. It also gave a TGI [31] of over 100 µM, a TGI [32] of over 100 µM and a TGI [33] of over 100 µM. For the same compound, the TGI [34] was over 100 µM, the TGI [35] was over 100 µM and the TGI [36] was over 100 µM. The TGI [37] was over 100 µM, the TGI [38] was over 100 µM and the TGI [39] was over 100 µM. It also gave a TGI [41] of over 100 µM, a TGI [42] of over 100 µM and a TGI [43] of over 100 µM. The TGI [59] was over 100 µM, the TGI [44] was over 100 µM and the TGI [45] was over 100 µM. The TGI [46] was over 100 µM, the TGI [47] was over 100 µM and the TGI [48] was over 100 µM. It also gave a TGI [49] of over 100 µM, a TGI [50] of over 100 µM and a TGI [51] of over 100 µM. The TGI [52] was over 100 µM, the TGI [53] was over 100 µM and the TGI [54] was over 100 µM. The TGI [55] was over 100 µM and the TGI [56] was over 100 µM.
COc1ccc(-c2c3c(nc4[nH]c(=S)[nH]c(=S)c24)CCCC3)cc1OC was tested, and the TGI [2] was over 100 µM, the TGI [3] was 79 µM and the TGI [4] was over 100 µM. The TGI [57] was over 100 µM, the TGI [5] was over 100 µM and the TGI [6] was over 100 µM. The TGI [7] was over 100 µM, the TGI [8] was 76.9 µM and the TGI [10] was 45.3 µM. The TGI [11] was 74.6 µM, the TGI [12] was 28.6 µM and the TGI [13] was over 100 µM. For the same compound, the TGI [14] was over 100 µM, the TGI [58] was 66.1 µM and the TGI [15] was over 100 µM. It also gave a TGI [17] of over 100 µM, a TGI [18] of 38.8 µM and a TGI [19] of over 100 µM. For the same compound, the TGI [20] was over 100 µM, the TGI [21] was over 100 µM and the TGI [22] was over 100 µM. The TGI [23] was 61.2 µM, the TGI [24] was over 100 µM and the TGI [25] was 37.5 µM. It also gave a TGI [26] of 42.9 µM, a TGI [27] of over 100 µM and a TGI [28] of over 100 µM. It also gave a TGI [29] of over 100 µM, a TGI [30] of 73.1 µM and a TGI [32] of over 100 µM. The TGI [33] was over 100 µM, the TGI [34] was 70.7 µM and the TGI [36] was over 100 µM. The TGI [37] was over 100 µM, the TGI [38] was over 100 µM and the TGI [39] was 54.4 µM. It also gave a TGI [40] of over 100 µM, a TGI [41] of over 100 µM and a TGI [42] of 59 µM. For the same compound, the TGI [43] was 32.6 µM, the TGI [59] was over 100 µM and the TGI [44] was over 100 µM. For the same compound, the TGI [45] was 76.2 µM, the TGI [47] was 57.9 µM and the TGI [49] was over 100 µM. It also gave a TGI [50] of over 100 µM, a TGI [51] of over 100 µM and a TGI [52] of over 100 µM. It also gave a TGI [53] of 51.2 µM, a TGI [54] of 39.6 µM and a TGI [55] of over 100 µM. For the same compound, the TGI [56] was 86.2 µM.
S=C(S)N1CCN(c2ccccc2)CC1 showed a TGI [1] of over 100 µM, a TGI [2] of over 100 µM and a TGI [3] of over 100 µM. For the same compound, the TGI [57] was over 100 µM, the TGI [5] was over 100 µM and the TGI [6] was over 100 µM. The TGI [8] was over 100 µM, the TGI [9] was over 100 µM and the TGI [10] was over 100 µM. The TGI [11] was over 100 µM, the TGI [12] was over 100 µM and the TGI [13] was over 100 µM. For the same compound, the TGI [58] was over 100 µM, the TGI [15] was over 100 µM and the TGI [17] was over 100 µM. For the same compound, the TGI [18] was over 100 µM, the TGI [19] was 64.4 µM and the TGI [20] was over 100 µM. It also gave a TGI [21] of over 100 µM, a TGI [24] of over 100 µM and a TGI [27] of over 100 µM. For the same compound, the TGI [28] was over 100 µM, the TGI [29] was over 100 µM and the TGI [31] was over 100 µM. The TGI [32] was over 100 µM, the TGI [33] was over 100 µM and the TGI [34] was over 100 µM. The TGI [35] was over 100 µM, the TGI [36] was over 100 µM and the TGI [37] was over 100 µM. It also gave a TGI [38] of over 100 µM, a TGI [39] of over 100 µM and a TGI [40] of 77.3 µM. It also gave a TGI [42] of over 100 µM, a TGI [43] of over 100 µM and a TGI [59] of over 100 µM. The TGI [44] was over 100 µM, the TGI [45] was over 100 µM and the TGI [46] was over 100 µM. For the same compound, the TGI [47] was over 100 µM, the TGI [48] was over 100 µM and the TGI [49] was over 100 µM. For the same compound, the TGI [50] was over 100 µM, the TGI [51] was over 100 µM and the TGI [52] was over 100 µM. The TGI [53] was over 100 µM, the TGI [54] was over 100 µM and the TGI [55] was over 100 µM. For the same compound, the TGI [56] was over 100 µM.
